The subject of series [1] is carrageen induced paw oedema. In words: carrageen induced paw oedema in the rat (anti-inflammatory activity). Type of series: in vivo. As to conditions: administered 1h before the carrageen, 10 animals. From the text:
(§1) The pharmaco-toxicological properties of the compounds '1 have been studied in comparison with diflunisal and with N-acetylcysteine, in order to evaluate the pharmacological and toxicological properties of the compounds of the invention with respect to those of the starting compounds. The results relating to the compound 5 (see scheme I) are hereinafter reported, only for illustrative and not for limiting purpose.

Series [2] concerns phenylquinone induced writhing. In words: phenylquinone induced writhing in the mouse (analgesic activity). Type of series: in vivo. As to conditions: 10 animals.
Text: as §1
(In writhing tests, fewer writhes than in controls are read as antinociception.)

The next series deals with sacrospinalis muscle. In words: histolesivity, intramuscular injection in the sacrospinalis muscle of rabbit. Type of series: in vivo. As to conditions: equimolar doses. From the text: (§2) Other toxicological features of the compound 5 have been also studied, more particularly the histolesivity (intramuscular injection in the sacrospinalis muscle of rabbit) and the gastrolesivity (ulcers after oral administration in the rat).

The test system of another series is ulcers. Kind of series: gastrolesivity, ulcers after oral administration in the rat. Type of series: in vivo. As to conditions: equimolar doses.
Text: as §2

A short description of series [3]: plasma levels of diflunisal after oral administration in the rat (pharmacokinetics). It counts as in vivo. As to conditions: 40 umol/kg, oral dose 0.04 mmol/kg. From the text: Lastly, some pharmacokinetic properties of the compound 5 have been investigated, by measuring the plasma levels of diflunisal after oral administration of 0.04 mmol/kg p.o. in the rat, this dose being close to the therapeutical one. [table]

A short description of series [4]: water solubility (observation at preparation). Type of series: physicochemical. How it is done:
3.95 g of S-[2',4'-difluoro-4-hydroxy-(1,1'-diphenyl)-3-carbonyl]-N-acetyl-L-cysteine (5) are added with 2.92 g of lysine base as a 50% aqueous solution, 8 ml of water and 20 ml of acetone; the mixture is stirred until a clear solution is obtained and filtered. Under stirring the mixture is diluted up to 100 ml with acetone, cooled to -10°C for a night, filtered and dried in a stove at 50-60°C under vacuum. A white, water soluble product is obtained having melting point of 179-184°C, with a yield of 92%.

Counter-ions that a name gives are not always drawn.

Two molecules from patent EP0144519A1, “2',4'-Difluoro-4-hydroxy-(1,1'-diphenyl)-3-carboxylic derivatives of N-acetylcysteine and of S-carboxymethylcysteine having anti-inflammatory and mucolytic activity, process for their preparation and related pharmaceutical compositions” (priority 1983, dated 1985) can be followed below.

As to `O=C(O)c1cc(-c2ccc(F)cc2F)ccc1O` [Diflunisal, 2',4'-difluoro-4-hydroxy-(1,1'-diphenyl)-3-carboxylic acid], the entries for the “INIBITION % (medium value ± s.e.) anti-inflammatory activity (a)” value in series [1] (0.040 mmol kg^-1 p.o.), in series [1] (0.120 mmol kg^-1 p.o.) and in series [1] (0.400 mmol kg^-1 p.o.) were 29.6 ± 5.4%, 50.3 ± 2.0% and 53.9 ± 4.7%, respectively. In addition, the “INIBITION % (medium value ± s.e.) analgesic activity (b)” value in series [2] (0.040 mmol kg^-1 p.o.) was found to be 9.5 ± 6.2%; in series [2] (0.120 mmol kg^-1 p.o.), 16.6 ± 15.9%; in series [2] (0.400 mmol kg^-1 p.o.), 39.6 ± 9.8%. The histolesivity result in the series on sacrospinalis muscle is on record as “high”. Besides, the gastrolesivity result in the series with ulcers is listed as “high”. The Cmax (commonly the peak of the concentration-time curve) in series [3] amounted to 39.7 µg/mL. Further, in series [3] (read-out: o → oo), the AUC(0-inf) is 345 µg·h/mL. In series [3] (read-out: tC max), the Tmax is 3 h. In addition, in series [3] (read-out: t½ (converted)), the half-life was 4.2 h.
For `CC(=O)N[C@@H](CSC(=O)c1cc(-c2ccc(F)cc2F)ccc1O)C(=O)O` [Example 8, S-/ 2',4'-difluoro-4-hydroxy-(1,1'-diphenyl)-3-carbonyl]-N-acetyl-L-cysteine lysine salt], the solubility in water result in series [4] was “water soluble”.
